According to ChEMBL document CHEMBL1671689, “Activity of ceftaroline against recent emerging serotypes of Streptococcus pneumoniae in the United States” (2010):
Values after ≈ are worked out from the molar mass of the structure shown.

Assays:
Format in all cases: functional
Streptococcus pneumoniae [1] = assay: Antimicrobial activity against Streptococcus pneumoniae serotype 19A by broth microdilution method
Streptococcus pneumoniae [2] = assay: Antimicrobial activity against Streptococcus pneumoniae serotype 3 by broth microdilution method
Streptococcus pneumoniae [3] = assay: Antimicrobial activity against Streptococcus pneumoniae serotype 35B by broth microdilution method
Streptococcus pneumoniae [4] = assay: Antimicrobial activity against Streptococcus pneumoniae serotype 7F by broth microdilution method
Streptococcus pneumoniae [5] = assay: Antimicrobial activity against Streptococcus pneumoniae serotype 11A by broth microdilution method
Streptococcus pneumoniae [6] = assay: Antimicrobial activity against Streptococcus pneumoniae serotype 6C by broth microdilution method
Streptococcus pneumoniae [7] = assay: Antimicrobial activity against multiple drug resistant Streptococcus pneumoniae serotype 19A by broth microdilution method
Streptococcus pneumoniae [8] = assay: Antimicrobial activity against multiple drug resistant Streptococcus pneumoniae serotype 19F by broth microdilution method
Streptococcus pneumoniae [9] = assay: Antimicrobial activity against multiple drug resistant Streptococcus pneumoniae serotype 6B by broth microdilution method
Streptococcus pneumoniae [10] = assay: Antimicrobial activity against Streptococcus pneumoniae serotype 19A assessed as percent susceptible isolates by broth microdilution method
Streptococcus pneumoniae [11] = assay: Antimicrobial activity against Streptococcus pneumoniae serotype 3 assessed as percent susceptible isolates by broth microdilution method
Streptococcus pneumoniae [12] = assay: Antimicrobial activity against Streptococcus pneumoniae serotype 35B assessed as percent susceptible isolates by broth microdilution method
Streptococcus pneumoniae [13] = assay: Antimicrobial activity against Streptococcus pneumoniae serotype 7F assessed as percent susceptible isolates by broth microdilution method
Streptococcus pneumoniae [14] = assay: Antimicrobial activity against Streptococcus pneumoniae serotype 11A assessed as percent susceptible isolates by broth microdilution method
Streptococcus pneumoniae [15] = assay: Antimicrobial activity against Streptococcus pneumoniae serotype 6C assessed as percent susceptible isolates by broth microdilution method
Streptococcus pneumoniae [16] = assay: Antimicrobial activity against multiple drug resistant Streptococcus pneumoniae serotype 19A assessed as percent susceptible isolates by broth microdilution method
Streptococcus pneumoniae [17] = assay: Antimicrobial activity against multiple drug resistant Streptococcus pneumoniae serotype 19F assessed as percent susceptible isolates by broth microdilution method
Streptococcus pneumoniae [18] = assay: Antimicrobial activity against multiple drug resistant Streptococcus pneumoniae serotype 6B assessed as percent susceptible isolates by broth microdilution method
Streptococcus pneumoniae [19] = assay: Antimicrobial activity against Streptococcus pneumoniae serotype 15A assessed as percent susceptible isolates by broth microdilution method
Streptococcus pneumoniae [20] = assay: Antimicrobial activity against Streptococcus pneumoniae serotype 22F assessed as percent susceptible isolates by broth microdilution method
Streptococcus pneumoniae [21] = assay: Antimicrobial activity against Streptococcus pneumoniae serotype 23B assessed as percent susceptible isolates by broth microdilution method
Streptococcus pneumoniae [22] = assay: Antimicrobial activity against Streptococcus pneumoniae serotype 19F assessed as percent susceptible isolates by broth microdilution method
Streptococcus pneumoniae [23] = assay: Antimicrobial activity against Streptococcus pneumoniae serotype 23A assessed as percent susceptible isolates by broth microdilution method

SMILES	MIC50 (Streptococcus pneumoniae [1]) [µg/mL]	MIC90 (Streptococcus pneumoniae [1]) [µg/mL]	MIC (Streptococcus pneumoniae [2]) [µg/mL]	MIC50 (Streptococcus pneumoniae [2]) [µg/mL]	MIC90 (Streptococcus pneumoniae [2]) [µg/mL]	MIC50 (Streptococcus pneumoniae [3]) [µg/mL]	MIC90 (Streptococcus pneumoniae [3]) [µg/mL]	MIC (Streptococcus pneumoniae [4]) [µg/mL]	MIC50 (Streptococcus pneumoniae [4]) [µg/mL]	MIC90 (Streptococcus pneumoniae [4]) [µg/mL]	MIC50 (Streptococcus pneumoniae [5]) [µg/mL]	MIC90 (Streptococcus pneumoniae [5]) [µg/mL]	MIC50 (Streptococcus pneumoniae [6]) [µg/mL]	MIC90 (Streptococcus pneumoniae [6]) [µg/mL]	MIC50 (Streptococcus pneumoniae [7]) [µg/mL]	MIC50 (Streptococcus pneumoniae [8]) [µg/mL]	MIC90 (Streptococcus pneumoniae [8]) [µg/mL]	MIC50 (Streptococcus pneumoniae [9]) [µg/mL]	MIC90 (Streptococcus pneumoniae [9]) [µg/mL]	Activity (Streptococcus pneumoniae [10]) [%]	other results
CCO/N=C(\C(=O)N[C@@H]1C(=O)N2C(C(=O)[O-])=C(Sc3nc(-c4cc[n+](C)cc4)cs3)CS[C@H]12)c1nsc(NP(=O)(O)O)n1 [CEFTAROLINE FOSAMIL]	0.12 (≈ 0.175 µM)	0.25 (≈ 0.365 µM)	≤ 0.008	≤ 0.008	≤ 0.008	0.12 (≈ 0.175 µM)	0.12 (≈ 0.175 µM)	≤ 0.008	≤ 0.008	0.015 (≈ 0.0219 µM)	0.06 (≈ 0.0876 µM)	0.06 (≈ 0.0876 µM)	0.015 (≈ 0.0219 µM)	0.06 (≈ 0.0876 µM)	0.25 (≈ 0.365 µM)	0.25 (≈ 0.365 µM)	0.25 (≈ 0.365 µM)	0.25 (≈ 0.365 µM)	0.25 (≈ 0.365 µM)	–	MIC90 (Streptococcus pneumoniae [7]): 0.25 µg/mL (≈ 0.365 µM)
CO/N=C(\C(=O)N[C@@H]1C(=O)N2C(C(=O)O)=C(CSc3nc(=O)c(O)nn3C)CS[C@H]12)c1csc(N)n1 [CEFTRIAXONE]	1 (≈ 1.8 µM)	2 (≈ 3.61 µM)	≤ 0.25	≤ 0.25	≤ 0.25	1 (≈ 1.8 µM)	1 (≈ 1.8 µM)	≤ 0.25	≤ 0.25	≤ 0.25	≤ 0.25	≤ 0.25	0.25 (≈ 0.451 µM)	0.25 (≈ 0.451 µM)	2 (≈ 3.61 µM)	2 (≈ 3.61 µM)	4 (≈ 7.21 µM)	2 (≈ 3.61 µM)	4 (≈ 7.21 µM)	65.6	MIC (Streptococcus pneumoniae [5]): ≤ 0.25 µg/mL; MIC90 (Streptococcus pneumoniae [7]): 4 µg/mL (≈ 7.21 µM); Activity (Streptococcus pneumoniae [11]): 100%; Activity (Streptococcus pneumoniae [12]): 98.3%; Activity (Streptococcus pneumoniae [13]): 98.3%; Activity (Streptococcus pneumoniae [14]): 98%; Activity (Streptococcus pneumoniae [15]): 100%; Activity (Streptococcus pneumoniae [16]): 43.9%; Activity (Streptococcus pneumoniae [17]): 43.9%; Activity (Streptococcus pneumoniae [18]): 43.9%; Activity (Streptococcus pneumoniae [19]): 100%; Activity (Streptococcus pneumoniae [20]): 100%; Activity (Streptococcus pneumoniae [21]): 97%; Activity (Streptococcus pneumoniae [22]): 65.5%; Activity (Streptococcus pneumoniae [23]): 100%
CO/N=C(\C(=O)N[C@@H]1C(=O)N2C(C(=O)O)=C(COC(N)=O)CS[C@H]12)c1ccco1 [CEFUROXIME]	8 (≈ 18.9 µM)	> 8	≤ 1	≤ 1	≤ 1	4 (≈ 9.43 µM)	4 (≈ 9.43 µM)	≤ 1	≤ 1	≤ 1	≤ 1	≤ 1	2 (≈ 4.71 µM)	4 (≈ 9.43 µM)	8 (≈ 18.9 µM)	8 (≈ 18.9 µM)	> 8	8 (≈ 18.9 µM)	> 8	36.1	MIC (Streptococcus pneumoniae [5]): ≤ 1 µg/mL; Activity (Streptococcus pneumoniae [11]): 100%; Activity (Streptococcus pneumoniae [12]): 9.6%; Activity (Streptococcus pneumoniae [13]): 9.6%; Activity (Streptococcus pneumoniae [14]): 95.2%; Activity (Streptococcus pneumoniae [15]): 47.5%; Activity (Streptococcus pneumoniae [16]): 0%; Activity (Streptococcus pneumoniae [17]): 0%; Activity (Streptococcus pneumoniae [18]): 0%; Activity (Streptococcus pneumoniae [19]): 91.4%; Activity (Streptococcus pneumoniae [20]): 100%; Activity (Streptococcus pneumoniae [21]): 96.8%; Activity (Streptococcus pneumoniae [22]): 20.7%; Activity (Streptococcus pneumoniae [23]): 96.4%
CCC[C@@H]1C[C@@H](C(=O)N[C@@H]([C@H]2O[C@H](SC)[C@H](O)[C@@H](O)[C@H]2O)[C@H](C)Cl)N(C)C1 [CLINDAMYCIN]	> 2	> 2	–	≤ 0.25	≤ 0.25	≤ 0.25	≤ 0.25	≤ 0.25	≤ 0.25	≤ 0.25	≤ 0.25	≤ 0.25	≤ 0.25	≤ 0.25	–	> 2	> 2	> 2	> 2	43.4	MIC (Streptococcus pneumoniae [3]): ≤ 0.25 µg/mL; MIC (Streptococcus pneumoniae [7]): > 1 µg/mL; Activity (Streptococcus pneumoniae [11]): 96.3%; Activity (Streptococcus pneumoniae [12]): 100%; Activity (Streptococcus pneumoniae [13]): 100%; Activity (Streptococcus pneumoniae [14]): 95.9%; Activity (Streptococcus pneumoniae [15]): 97.7%; Activity (Streptococcus pneumoniae [16]): 0%; Activity (Streptococcus pneumoniae [17]): 0%; Activity (Streptococcus pneumoniae [18]): 0%; Activity (Streptococcus pneumoniae [19]): 10.5%; Activity (Streptococcus pneumoniae [20]): 100%; Activity (Streptococcus pneumoniae [21]): 100%; Activity (Streptococcus pneumoniae [22]): 31%; Activity (Streptococcus pneumoniae [23]): 81.8%
